According to patent US5183743A, “Chromogenic dibenzoxazepinone and dibenzothiazepinone enzyme substrates” (Miles Inc., priority 1991, dated 1993):

What was measured:
β-galactosidase = assay: enzymatic cleavage of substrate to (20) by β-galactosidase; format: biochemical; conditions: in the presence of β-galactosidase
Method: (§1) When dissolved in 50 mM phosphate buffer at pH 7.4 containing 5 mM magnesium chloride (MgCl2) compound (23)+(24) (mixture) had λmax of 454 nm (ε =22,000) and 344 nm (ε =14,000).

[1] = UV/visible absorption in 50 mM phosphate buffer pH 7.4 containing 5 mM MgCl2; format: physicochemical; conditions: 50 mM phosphate buffer pH 7.4, 5 mM MgCl2
Method: as §1

[2] = protonated vs deprotonated form; cited from earlier work

Compound | Km (β-galactosidase) | rate (Kcat) of cleavage to (20) (β-galactosidase) | ε at λmax 344 nm ([1]; 344 nm) | ε at λmax 454 nm ([1]; 454 nm) | λmax ([1]; long-wavelength maximum) | λmax ([1]; second maximum) | shift in absorption (λmax) between the protonated form and the deprotonated form [2]
8-β-D-Galactopyranosyloxy-11-methyl-11H-dibenz[b,e][1,4]oxazepin-1-one(23) and 2-β-D-galactopyranosyloxy-11-methyl-11H-dibenz[b,e][-1,4]oxazepin-8-one (24) [(23)+(24)] | 75 µM | 1.32×10^4 mol. min^-1 /mol. active site | 14,000 | 22,000 | 454 nm | 344 nm | –
CC1Oc2cc(O)ccc2N=C2C=CC(=O)C=C21 (stereo not shown) [(20)] | – | – | – | – | – | – | 122 nm
